The NIST ThermoML archive (doi:10.1021/je200195q)
Numbers after ± are expanded uncertainties.

Test: activity coefficient (dimensionless); of the first substance listed, at infinite dilution; xn = mol fraction of the nth substance listed
Details: 101 kPa, Liquid, Chromatography, x1 = 0

SMILES	activity coefficient (312.8 K)	activity coefficient (332.85 K)	activity coefficient (354.65 K)	activity coefficient (323.1 K)	activity coefficient (333.15 K)	activity coefficient (343.15 K)	also measured
CCCCCCC [heptane] + CCCCCC[n+]1ccn(C)c1.FC(F)(F)C(F)(F)[P-](F)(F)(F)(C(F)(F)C(F)(F)F)C(F)(F)C(F)(F)F	8.84 ± 0.6	7.73 ± 0.53	6.62 ± 0.45	–	–	–	–
CCCC(C)=O [pentan-2-one] + CCCCCCCCCCn1cc[n+](CCCCCCCCCC)c1C.O=S(=O)([N-]S(=O)(=O)C(F)(F)F)C(F)(F)F	–	–	–	0.397 ± 0.034	0.404 ± 0.034	0.407 ± 0.034	–
CCCC(C)=O [pentan-2-one] + CCCCCC[n+]1ccn(C)c1.FC(F)(F)C(F)(F)[P-](F)(F)(F)(C(F)(F)C(F)(F)F)C(F)(F)C(F)(F)F	0.271 ± 0.03	0.298 ± 0.031	0.311 ± 0.031	–	–	–	–
CCC(=O)CC [pentan-3-one] + CCCCCC[n+]1ccn(C)c1.FC(F)(F)C(F)(F)[P-](F)(F)(F)(C(F)(F)C(F)(F)F)C(F)(F)C(F)(F)F	0.236 ± 0.029	0.28 ± 0.03	0.301 ± 0.031	–	–	–	–
CCCCCCCCCCCCC [tridecane] + CCCCn1cc[n+](C)c1.O=S(=O)([N-]S(=O)(=O)C(F)(F)C(F)(F)F)C(F)(F)C(F)(F)F	–	–	–	–	–	–	activity coefficient (322.55 K): 111 ± 7.6; activity coefficient (342.75 K): 78.1 ± 5.3; activity coefficient (363.65 K): 68.9 ± 4.7
CCC=O [propanal] + CCn1cc[n+](C)c1.CS(=O)(=O)[O-]	–	–	–	–	–	–	activity coefficient (312.55 K): 2.76 ± 0.19; activity coefficient (322.45 K): 2.71 ± 0.18; activity coefficient (332.45 K): 2.65 ± 0.18
CCCCO [butan-1-ol] + CCCCCCCCCCn1cc[n+](CCCCCCCCCC)c1C.O=S(=O)([N-]S(=O)(=O)C(F)(F)F)C(F)(F)F	–	–	–	1.38 ± 0.09	1.2 ± 0.077	1.12 ± 0.071	–
Cc1ccc(C)cc1 [1,4-dimethylbenzene] + CCCCCC[n+]1ccn(C)c1.FC(F)(F)C(F)(F)[P-](F)(F)(F)(C(F)(F)C(F)(F)F)C(F)(F)C(F)(F)F	0.992 ± 0.062	1.03 ± 0.065	1 ± 0.063	–	–	–	–
Cc1ccccc1 [toluene] + CCCCCCCCCCn1cc[n+](CCCCCCCCCC)c1C.O=S(=O)([N-]S(=O)(=O)C(F)(F)F)C(F)(F)F	–	–	–	0.512 ± 0.038	0.52 ± 0.039	0.527 ± 0.039	–
C1CCCCCC1 [cycloheptane] + CCCCCCCCCCn1cc[n+](CCCCCCCCCC)c1C.O=S(=O)([N-]S(=O)(=O)C(F)(F)F)C(F)(F)F	–	–	–	3.17 ± 0.22	4.46 ± 0.3	6.09 ± 0.41	–
C1CCCCCC1 [cycloheptane] + CCCCCC[n+]1ccn(C)c1.FC(F)(F)C(F)(F)[P-](F)(F)(F)(C(F)(F)C(F)(F)F)C(F)(F)C(F)(F)F	9.01 ± 0.61	13.2 ± 0.9	28.7 ± 2	–	–	–	–
c1ccccc1 [benzene] + CCCCCCCCCCn1cc[n+](CCCCCCCCCC)c1C.O=S(=O)([N-]S(=O)(=O)C(F)(F)F)C(F)(F)F	–	–	–	0.429 ± 0.035	0.431 ± 0.035	0.434 ± 0.035	–
CC(C)O [propan-2-ol] + CCCCn1cc[n+](C)c1.O=S(=O)([N-]S(=O)(=O)C(F)(F)C(F)(F)F)C(F)(F)C(F)(F)F	–	–	–	–	–	–	activity coefficient (322.55 K): 1.77 ± 0.12; activity coefficient (342.75 K): 1.46 ± 0.096; activity coefficient (362.65 K): 1.25 ± 0.08
CCC(C)=O [butanone] + CCCCCCCCCCn1cc[n+](CCCCCCCCCC)c1C.O=S(=O)([N-]S(=O)(=O)C(F)(F)F)C(F)(F)F	–	–	–	0.318 ± 0.031	0.292 ± 0.031	0.264 ± 0.03	–
CCC[N+](=O)[O-] [1-nitropropane] + CCCCCCCCCCn1cc[n+](CCCCCCCCCC)c1C.O=S(=O)([N-]S(=O)(=O)C(F)(F)F)C(F)(F)F	–	–	–	0.504 ± 0.038	0.487 ± 0.037	0.479 ± 0.037	–
OCC(F)(F)F [2,2,2-trifluoroethanol] + CCCCCCCCCCn1cc[n+](CCCCCCCCCC)c1C.O=S(=O)([N-]S(=O)(=O)C(F)(F)F)C(F)(F)F	–	–	–	0.399 ± 0.034	0.379 ± 0.033	0.355 ± 0.032	–
CC(C)CC(C)(C)C [2,2,4-trimethylpentane] + CCCCn1cc[n+](C)c1.O=S(=O)([N-]S(=O)(=O)C(F)(F)C(F)(F)F)C(F)(F)C(F)(F)F	–	–	–	–	–	–	activity coefficient (322.55 K): 13.3 ± 0.91; activity coefficient (342.75 K): 11.7 ± 0.8; activity coefficient (362.65 K): 10.5 ± 0.72
CCC(C)CC [3-methylpentane] + CCCCCCCCCCn1cc[n+](CCCCCCCCCC)c1C.O=S(=O)([N-]S(=O)(=O)C(F)(F)F)C(F)(F)F	–	–	–	1.71 ± 0.11	1.68 ± 0.11	1.63 ± 0.11	–
ClC(Cl)(Cl)Cl [tetrachloromethane] + CCCCCC[n+]1ccn(C)c1.FC(F)(F)C(F)(F)[P-](F)(F)(F)(C(F)(F)C(F)(F)F)C(F)(F)C(F)(F)F	2.19 ± 0.15	2.08 ± 0.14	1.94 ± 0.13	–	–	–	–
C=CCCCC [hex-1-ene] + CCCCCC[n+]1ccn(C)c1.FC(F)(F)C(F)(F)[P-](F)(F)(F)(C(F)(F)C(F)(F)F)C(F)(F)C(F)(F)F	3.67 ± 0.25	3.42 ± 0.23	3.14 ± 0.21	–	–	–	–
C1CCCCC1 [cyclohexane] + CCCCCC[n+]1ccn(C)c1.FC(F)(F)C(F)(F)[P-](F)(F)(F)(C(F)(F)C(F)(F)F)C(F)(F)C(F)(F)F	4.78 ± 0.33	4.17 ± 0.28	3.62 ± 0.25	–	–	–	–
CCCCCC [hexane] + CCCCn1cc[n+](C)c1.O=S(=O)([N-]S(=O)(=O)C(F)(F)C(F)(F)F)C(F)(F)C(F)(F)F	–	–	–	–	–	–	activity coefficient (322.55 K): 9.49 ± 0.65; activity coefficient (342.75 K): 8.8 ± 0.6; activity coefficient (362.65 K): 8.43 ± 0.57
CCCCO [butan-1-ol] + CCCCCC[n+]1ccn(C)c1.FC(F)(F)C(F)(F)[P-](F)(F)(F)(C(F)(F)C(F)(F)F)C(F)(F)C(F)(F)F	4.9 ± 0.33	2.32 ± 0.16	1.76 ± 0.12	–	–	–	–
CCC(=O)CC [pentan-3-one] + CCn1cc[n+](C)c1.CS(=O)(=O)[O-]	–	–	–	–	–	–	activity coefficient (312.55 K): 7.58 ± 0.52; activity coefficient (322.45 K): 7.45 ± 0.51; activity coefficient (332.45 K): 7.37 ± 0.5
CCCCCCCC [octane] + CCCCn1cc[n+](C)c1.O=S(=O)([N-]S(=O)(=O)C(F)(F)C(F)(F)F)C(F)(F)C(F)(F)F	–	–	–	–	–	–	activity coefficient (322.55 K): 20.4 ± 1.4; activity coefficient (342.75 K): 17.3 ± 1.2; activity coefficient (362.65 K): 15.5 ± 1.1
CCCCCCCCCCC [undecane] + CCCCn1cc[n+](C)c1.O=S(=O)([N-]S(=O)(=O)C(F)(F)C(F)(F)F)C(F)(F)C(F)(F)F	–	–	–	–	–	–	activity coefficient (322.55 K): 57.3 ± 3.9; activity coefficient (342.75 K): 45.9 ± 3.1; activity coefficient (362.65 K): 37.8 ± 2.6
CC(C)O [propan-2-ol] + CCCCCCCCCCn1cc[n+](CCCCCCCCCC)c1C.O=S(=O)([N-]S(=O)(=O)C(F)(F)F)C(F)(F)F	–	–	–	1.27 ± 0.082	1.14 ± 0.073	1.03 ± 0.065	–
CC1CCCC1 [methylcyclopentane] + CCCCn1cc[n+](C)c1.O=S(=O)([N-]S(=O)(=O)C(F)(F)C(F)(F)F)C(F)(F)C(F)(F)F	–	–	–	–	–	–	activity coefficient (322.55 K): 6.85 ± 0.47; activity coefficient (342.75 K): 6.05 ± 0.41; activity coefficient (362.65 K): 5.79 ± 0.4
CO [methanol] + CCCCCCCCCCn1cc[n+](CCCCCCCCCC)c1C.O=S(=O)([N-]S(=O)(=O)C(F)(F)F)C(F)(F)F	–	–	–	0.963 ± 0.061	0.857 ± 0.055	0.755 ± 0.05	–
CCCCCCCC [octane] + CCCCCCCCCCn1cc[n+](CCCCCCCCCC)c1C.O=S(=O)([N-]S(=O)(=O)C(F)(F)F)C(F)(F)F	–	–	–	2.54 ± 0.17	2.48 ± 0.17	2.45 ± 0.17	–
